This note sets out measurements from patent US8415152B2, “Therapeutical composition containing dentritic cells and use thereof” (Helmholtz-Zentrum für Infektionsforschung GmbH, priority 2003, dated 2013).

Experiment [1] concerns monocyte derived DC. The experiment can be described thus: Flow cytometric analysis of DC surface molecules. The class given is cell-based, human. The following applies: immature DC of allergics, 48 h incubation. Here is the method:
Monocyte derived DC were generated as previously described (Weigt et al. Immunobiol. 207, 223-233 (2003). Briefly, blood was centrifuged to remove platelets, diluted and layered over Ficoll-Paque (Amersham Pharmacia, Uppsala, Sweden). After density gradient centrifugation, PBMC were collected, and monocytes were enriched using the MACS system and anti-CD14 beads (Miltenyi Biotec, Bergisch Gladbach, Germany). The CD14 positive fraction (monocytes) was cultured in the serum-free medium X-VIVO 15 supplemented with 100 U/ml penicillin and […] streptomycin (all BioWhittaker, Verviers, Belgium). The CD14 negative fraction containing the lymphocytes was cryopreserved in 90% FCS (GIBCO, Eggenstein-Leopoldhafen, Germany) and 10% DMSO (SIGMA, Taufkirchen, Germany). On day 1 and day 5 after isolation, 800 U/m of recombinant GM-CSF and 500 U/ml of recombinant IL-4 (Strathmann Biotec, Hamburg, Germany) were added to the monocyte culture to induce DC.
(§1) On day 5 of the culture, DC were pulsed with affinity purified house dust mite allergen adjusted to a concentration of 100 ng/ml of DerP1 or with PBS as control. […] The respective optimal concentrations were experimentally determined using the highest expression of stimulatory cell surface molecules as read-out system. The substances were incubated on the cells for 48 hours.
For immunophenotyping, an aliquot of DC was harvested after 7 days of culture and washed in PBS supplemented with 0.5% FCS and 10 mM NaN3 (SIGMA, Taufkirchen, Germany). After 30-minute-incubation at 4° C. with one of the following combination of labeled murine mAbs (isotype control FITC/isotype control PE, anti-CD83 FITC, anti-CD86 FITC/anti-CD40 PE, anti-CD 80 FITC/anti-HLA-DR PE, anti-CD1a FITC/anti-CD14 PE (all BD Biosciences, Heidelberg, Germany)) cells were washed and analysed on a EPICS XL-MCL (Beckmann Coulter, Krefeld, Germany) flow cytometer. Data were processed with the Expo 32 cytometer software (Beckmann Coulter). The expression of the cell surface molecules was shown in 1 parameter Histograms (FIG. 2) or evaluated using the median of fluorescence intensity (MFI) after subtraction of the values of the isotype control (Tab. 1).

Experiment [2] concerns autologous lymphocytes. The experiment can be described thus: Cytokines in coculture of pretreated DC with autologous lymphocytes (ELISA). Type of experiment: cell-based, human. The following applies: allergic donors, DC:lymphocytes 1:3. Here is the method:
as §1
Cytokine concentrations were determined in DC culture supernatant collected on day 7 (TNF-α, IL-10, IL-12) and in the supernatant of the coculture of DC and autologous lymphocytes collected on day 10 (IFN-γ, IL-4). Duo-Set ELISA kits for the detection of IL-12p70, IL-10, TNF, IFN-γ, IL-4 and IL-5 were purchased (R&D Systems, Wiesbaden, Germany) and performed according to the manufacturers instructions.
A portion of DC was used for coculture experiments with autologous lymphocytes from day 7 to day 13. To remove free stimulants, DC were harvested and washed twice. The cells were titrated in fresh medium in fresh round-bottom microtiterplates. 1×10^5 vital cryopreserved autologous lymphocytes were added at ratios of DC to lymphocytes from 1:3 to 1:2187 in a final volume of 200 μl in serum-free XVIVO-15. No further stimulants were given.
(ELISA stands for enzyme-linked immunosorbent assay.)

The test system of experiment [3] is Balb/c mice. The experiment can be described thus: Lung function measurement: airway hyperreactivity to methacholine, head-out body plethysmography. Type of experiment: in vivo, mouse. As to conditions: OVA-sensitized mice, 72 h after i.t. treatment, 24 h after last allergen challenge; mean±SEM. Here is the method:
Animals were sensitized and challenged as previously described (Glaab, T., A. Daser, A. Braun, U. Neuhaus-Steinmetz, H. Fabel, Y. Alarie, and H. Renz. 2001. Am. J. Physiol Lung Cell Mol. Physiol 280:L565-L573). Briefly, 10 μg ovalbumin (OVA, grade VI, Sigma, Müchen, Germany) was adsorbed to 1 mg Imject Alum (Pierce, Rockford, USA) in a total volume of 200 μl 0.9% NaCl solution and intraperitonealy injected three times on days 0, 14 and 21. Negative controls were injected with the solution lacking ovalbumin. All groups were subjected to inhalative allergen challenge on days 28 and 29. […] A lung deposition of approximately 8 μg OVA per mice in each session was calculated by a respiratory minute volume of 35 ml/min an a deposition factor of 0.15 as brought forward by Raabe et al. (Raabe, O. G., J. E. Bennick, M. E. Light, C. H. Hobbs, R. L. Thomas, and M. I. Tillery. 1973. Toxicol. Appl. Pharmacol. 26:264-273). […]
24 hours after the last allergen challenge, airway hyperreactivity to methacholine (Mch) was determined in non-anaesthesized spontaneously breathing animals using head-out body plethysmography, as described before (Glaab, T., A. Daser, A. Braun, U. Neuhaus-Steinmetz, H. Fabel, Y. Alarie, and H. Renz. 2001. Am. J. Physiol Lung Cell Mol. Physiol 280:L565-L573). […] Respiratory signals were analyzed using the Hem 3.4 system (Notocord systems S. A., Crossy-sur-Seine, F).

On to “IFN-γ: interferon gamma, IFNγ receptor agonist (Strathmann Biotec)”, for which, in experiment [1], the “Surface expression of CD80, CD86, CD40, HLA-DR, CD83 on DC” value is listed as “upregulated only HLA-DR”. For the same substance, in experiment [2], the “IFN-g in coculture supernatant” value is “heightened lymphopcyte IFN-g production” and the “IL-4 in coculture supernatant” value was “little effect on IL-4”. Moreover, in experiment [3], the “ED50: concentration of Mch needed to decrease the EF50 to 50% of baseline” value is recorded as 17.67±3.05 mg/ml Mch.

As to “macrophage activating lipopeptide-2 [MALP-2, reference compound]”, the “Surface expression of CD80, CD86, CD40, HLA-DR, CD83 on DC” value in experiment [1] was “significantly upregulated CD 40, CD 80, CD 83 and CD86”. Moreover, in experiment [2], the “IFN-g in coculture supernatant” value is recorded as “lowered IFN-g less compared to allergen pulsed DC” and the “IL-4 in coculture supernatant” value is given as “reduced IL-4 to control levels”. Also, the “ED50: concentration of Mch needed to decrease the EF50 to 50% of baseline” value in experiment [3] is on record as 20.13±1.36 mg/ml Mch.
